Experimental data: US10080804B2, “Conjugate with target-finding ligand and use thereof” (ethris GmbH, priority 2009, dated 2018)

What was measured:
human IP1 receptor = target: T1, human IP1 receptor (Homo sapiens, UniProt P43119); assay: Inhibition of FLUO-BSA-ILO receptor binding/uptake with CAY10449 on 16HBE14o-cells (FACS); type: cell-based; settings: 25 nM conjugate, increasing CAY10449 (15, 30, 150 μM) or excess of unconjugated ILO
T1 construct: The expression of IP1 receptor in human alveolar (A549) and bronchial (BEAS-2B, 16HBE14o-) epithelial cells was confirmed by Western blot analysis; endogenous in cells; host or cells: 16HBE14o- human bronchial epithelial cells
Procedure: 24-well plates were prepared as described above. CAY10449 was diluted in MEM to concentrations of 15 μM, 30 μM and 150 μM, and the mixtures were incubated at 37° C. for 15 min. […] The binding/uptake was measured using FACS.

[1] = physiological environment, i.e. in the blood; cited from earlier work
16HBE14o-cells [2] = assay: Confocal laser scanning microscopy of surface binding and intracellular uptake; type: cell-based, human; settings: 0.5 μM conjugate
Procedure: (§1) For the FACS measurement experiments, 100 000 cells/well were seeded in 24-well plates (TPP, Trasadingen, Switzerland) 24 hours before adding the conjugates. […] After the cells had been washed with PBS, the cells were removed from the wells by treatment with trypsin, and the FACS measurements were carried out using a Beckton-Dickinson FACS scan (San Jose, USA). For the confocal laser scanning microscopy, the experiments were carried out on slides with 4 chambers from BD Falcon Culture (BD Biosciences San Jose, USA) with 25 000 cells per chamber. The incubation of FLUO-BSA-ILO and FLUO-BSA was performed as described above. The cells were washed and fixed in 4% paraformaldehyde, and the nuclei were subsequently stained with 0.33 μM DAPI (4′,6-diamidino-2-phenylindole) and F-actin with Alexafluor® 568 Falloidin (Invitrogen GmbH, Karlsruhe, Germany) using standard protocols. The slides were covered with medium (Vectashield, Vector Laboratories Inc., Berlingame, USA), and images were taken with a confocal laser scanning microscope (Leica, Solms, Germany).

16HBE14o-cells [3] = assay: FACS receptor binding/uptake of fluorescein-BSA conjugates; type: cell-based, human; settings: 0.5 μM conjugate, 4 h, 37° C.
Procedure: as §1

A549 cells = assay: as above; type: cell-based, human; settings: 0.5 μM conjugate, 4 h, 37° C.
Procedure: as §1

H441 cells = assay: as above; type: cell-based, human; settings: 0.5 μM conjugate, 4 h, 37° C.
Procedure: as §1

BEAS-2B cells = assay: as above; type: cell-based, human; settings: 0.5 μM conjugate, 4 h, 37° C.
Procedure: as §1

T1 sequence (P43119 whole entry): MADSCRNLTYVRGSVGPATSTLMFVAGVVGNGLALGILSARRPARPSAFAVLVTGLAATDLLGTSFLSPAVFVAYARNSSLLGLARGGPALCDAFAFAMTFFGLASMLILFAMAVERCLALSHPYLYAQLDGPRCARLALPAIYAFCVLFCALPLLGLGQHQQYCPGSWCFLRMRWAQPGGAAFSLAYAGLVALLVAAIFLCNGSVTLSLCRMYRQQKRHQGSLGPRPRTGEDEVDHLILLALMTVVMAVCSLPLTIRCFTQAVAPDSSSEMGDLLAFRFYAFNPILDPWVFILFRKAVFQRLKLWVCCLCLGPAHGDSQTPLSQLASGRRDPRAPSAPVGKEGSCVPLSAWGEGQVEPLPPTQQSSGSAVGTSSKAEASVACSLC

effect of competitor on number of fluorescence-positive cells and MFI (human IP1 receptor) | Molecule | half-life [1] | cell surface binding and intracellular uptake (confocal microscopy) (16HBE14o-cells [2]) | positive 16HBE14o-cells (16HBE14o-cells [3]) | positive A549 cells (A549 cells) | positive cells (H441) (H441 cells) [%] | positive cells (BEAS-2B) (BEAS-2B cells) [%]
significant dose-dependent reduction | CC(C)Oc1ccc(Cc2ccc(NC3=NCCN3)cc2)cc1 [CAY10449] | – | – | – | – | – | –
– | CCCCC[C@H](O)/C=C/[C@@H]1[C@H]2C/C(=C/CCCC(=O)O)O[C@H]2C[C@H]1O [prostacyclin] | only a few minutes | – | – | – | – | –
no activity | FLUO-BSA: fluorescein-labeled bovine serum albumin, control without ligand | – | no uptake | unspecific background binding | unspecific background binding | 9.1±1.9 | 13.7±1.2
